Test results taken from US20210400967A1, “COMPOSITIONS COMPRISING PYRIDINE CARBOXYLATE HERBICIDES WITH GLYPHOSATE OR GLUFOSINATE” (Corteva Agriscience LLC, priority 2018, published 2021).

What was measured:
Format in all cases: in vivo
[1] = tested on: Euphorbia heterophylla (poinsettia); test: Greenhouse postemergence herbicidal effect, poinsettia (EPHHL); details: Example 5, 20-22 d
Text: (§1) Greenhouse Trial Methodology—Evaluation of Postemergence Herbicidal Effect
(§2) Seeds of the desired test plant species were planted in a 90:10% v/v (volume/volume) mixture of PRO-MIX® BX (Premier Tech Horticulture, Quakertown, Pa., USA) and PROFILE® GREENS GRADE™ (Profile Products LLC, Buffalo Grove, Ill., USA) planting mixture, which typically has a pH of 5.2 to 6.2 and an organic matter content of at least 50 percent, in plastic pots with a surface area of 103.2 square centimeters (cm^2). In some aspects, to ensure good germination and healthy plants, a fungicide treatment and/or other chemical or physical treatment was applied. The plants were grown for 7-36 days (d) in a greenhouse with an approximate 14-hour (h) photo-period which was maintained at about 23° C. during the day and 22° C. during the night. Nutrients and water were added on a regular basis and supplemental lighting was provided with overhead metal halide 1000-Watt lamps as necessary. The plants were employed for testing when they reached the second or third true leaf stage.
(§3) Emulsifiable concentrates of each of each pyridine carboxylate herbicide (Compound A or Compound B) were prepared at 100 grams acid equivalent per liter (g ae/L). The emulsifiable concentrates also included a safener, cloquintocet-mexyl, at 120 grams active ingredient per liter (g ai/L). […]
(§4) The treated plants and control plants were placed in a greenhouse as described above and watered by sub-irrigation to prevent wash-off of the test compounds. After 20-22 d, the condition of the test plants as compared with that of the control plants was determined visually and scored on a scale of 0 to 100 percent where 0 corresponds to no injury and 100 corresponds to complete kill.

[2] = tested on: Ipomoea hederacea (ivyleaf morningglory); test: Greenhouse postemergence herbicidal effect, ivyleaf morningglory (IPOHE); details: Example 5, 20-22 d
Text: as §1, §2, §3, §4

[3] = tested on: Helianthus annuus (common sunflower); test: Greenhouse postemergence herbicidal effect, common sunflower (HELAN); details: Example 5, 20-22 d
Text: as §1, §2, §3, §4

[4] = tested on: Viola tricolor (wild pansy); test: Greenhouse postemergence herbicidal effect, wild pansy (VIOTR); details: Example 5, 20-22 d
Text: as §1, §2
(§5) Emulsifiable concentrates of each of each pyridine carboxylate herbicide (Compound A or Compound B) were prepared at 100 grams acid equivalent per liter (g ae/L). The emulsifiable concentrates also included a safener, cloquintocet-mexyl, at 120 grams active ingredient per liter (g ai/L). An aliquot of each emulsifiable concentrate was placed in a 25 mL glass vial and diluted with an aqueous mixture of 1.25% (v/v) ACTIROB® B esterified rapeseed oil (Bayer Crop Science, Research Triangle Park, N.C., USA) or MSO® Concentrate with LECI-TECH® methylated soybean oil (Loveland Products, Loveland, Colo., USA) to obtain concentrated stock solutions at the highest application rate for each herbicide, based upon a 12 milliliter (mL) application volume at a rate of 187 liters per hectare (L/ha). The concentrated stock solutions were further diluted with an aqueous mixture of 1.25% v/v ACTIROB® B or MSO® Concentrate with LECI-TECH® to obtain stock solutions at reduced application rates for each herbicide. Spray solutions of the herbicide combinations (Compound A or Compound B plus glyphosate or glufosinate) were prepared by adding weighed amounts or aliquots of the glyphosate or glufosinate to the stock solutions of Compound A or Compound B to form 12-mL spray solutions in two-way combinations.
(§6) The spray solutions were applied to the plant material with an overhead Mandel track sprayer equipped with 8002E nozzles calibrated to deliver 187 L/ha over an application area of 0.503 square meters (m^2) at a spray height of 18 inches (43 centimeters (cm)) above the average plant canopy. Control plants were sprayed in the same manner with the solvent blank. All pyridine carboxylate herbicide (component a) application rates are given as “g ae/ha” and all glyphosate or glufosinate (component b) application rates are given as “g ai/ha.”
as §4

[5] = tested on: Chenopodium album L. (common lambsquarters); test: Greenhouse postemergence herbicidal effect, common lambsquarters (CHEAL); details: 20-22 d; for % visual injury: Example 1
Text: as §1, §2, §5, §6, §4

[6] = tested on: Cyperus esculentus (nutsedge); test: Greenhouse postemergence herbicidal effect, nutsedge (CYPES); details: Example 5, 20-22 d
Text: as §1, §2, §3, §4

[7] = tested on: Brassica napus (winter rape); test: Greenhouse postemergence herbicidal effect, winter rape (BRSNW); details: 20-22 d; for % visual injury: Example 1
Text: as §1, §2, §5, §6, §4

[8] = tested on: Stellaria media (chickweed); test: Greenhouse postemergence herbicidal effect, chickweed (STEME); details: Example 5, 20-22 d
Text: as §1, §2, §3, §4

[9] = tested on: Sinapis arvensis (wild mustard); test: Greenhouse postemergence herbicidal effect, wild mustard (SINAR); details: 20-22 d; for % visual injury: Example 1
Text: as §1, §2, §5, §6, §4

[10] = tested on: Cirsium arvense (Canadian thistle); test: Greenhouse postemergence herbicidal effect, Canadian thistle (CIRAR); details: 20-22 d; for % visual injury: Example 1
Text: as §1, §2, §5, §6, §4

[11] = tested on: Salsola kali (Russian thistle); test: Greenhouse postemergence herbicidal effect, Russian thistle (SASKR); details: 20-22 d; for % visual injury: Example 1
Text: as §1, §2, §5, §6, §4

[12] = tested on: Rumex obtusifolius (broad-leaf dock); test: Greenhouse postemergence herbicidal effect, broad-leaf dock (RUMOB); details: Example 5, 20-22 d
Text: as §1, §2, §3, §4

[13] = tested on: Sorghum vulgare (grain sorghum); test: Greenhouse postemergence herbicidal effect, grain sorghum (SORVU); details: Example 5, 20-22 d
Text: as §1, §2, §3, §4

[14] = tested on: Polygonum convolvulus (wild buckwheat); test: Greenhouse postemergence herbicidal effect, wild buckwheat (POLCO); details: 20-22 d; for % visual injury: Example 1
Text: as §1, §2, §5, §6, §4

[15] = tested on: Triticum aestivum (spring wheat); test: Greenhouse postemergence phytotoxicity on crop, spring wheat (TRZAS); details: 20-22 d; for % visual injury: Example 1
Text: as §1, §2, §5, §6, §4

Kochia scoparia (kochia) = test: Greenhouse postemergence herbicidal effect, kochia (KCHSC); details: 20-22 d; for % visual injury: Example 1
Text: as §1, §2, §5, §6, §4

[16] = tested on: Matricaria chamomilla (wild chamomile); test: Greenhouse postemergence herbicidal effect, wild chamomile (MATCH); details: 20-22 d; for % visual injury: Example 1
Text: as §1, §2, §5, §6, §4

[17] = tested on: Amaranthus retroflexus (pigweed); test: Greenhouse postemergence herbicidal effect, pigweed (AMARE); details: 20-22 d; for % visual injury: Example 1
Text: as §1, §2, §5, §6, §4

[18] = tested on: Hordeum vulgare (spring barley); test: Greenhouse postemergence phytotoxicity on crop, spring barley (HORVS); details: 20-22 d; for % visual injury: Example 1
Text: as §1, §2, §5, §6, §4

[19] = tested on: Echinochloa crus-galli (barnyardgrass); test: Greenhouse postemergence herbicidal effect, barnyardgrass (ECHCG); details: Example 5, 20-22 d
Text: as §1, §2, §3, §4

[20] = Example 2, Compound A 7.5 g ae/ha alone
[21] = Example 2, Compound A 10 g ae/ha alone
[22] = Example 6, Compound A 7.5 g ae/ha alone
[23] = Example 6, Compound A 10 g ae/ha alone
[24] = Example 5, Compound A 7.5 g ae/ha alone
[25] = Example 5, Compound A 10 g ae/ha alone

N#CCOC(=O)c1nc(-c2ccc3cc[nH]c3c2F)c(F)c(N)c1Cl [Compound A, cyanomethyl 4-amino-3-chloro-5-fluoro-6-(7-fluoro-1H-indol-6-yl)pyridine-2-carboxylate]
40%: % visual injury, Obs [7, 21] | % visual injury, Obs [7, 23] | % visual injury ([10]; Compound A 10 g ae/ha alone) | % visual injury, Obs [10, 20] | % visual injury, Obs [10, 24] | % visual injury, Obs [10, 22]
73%: % visual injury, Obs (Kochia scoparia (kochia); [25]) | % visual injury ([17]; Compound A 10 g ae/ha alone)
35%: % visual injury ([7]; Compound A 7.5 g ae/ha alone) | % visual injury, Obs [7, 20] | % visual injury, Obs [7, 22]
55%: % visual injury, Obs [10, 21] | % visual injury, Obs [10, 23]
60%: % visual injury, Obs [10, 25] | % visual injury ([11]; Compound A 7.5 g ae/ha alone) | % visual injury, Obs [11, 20] | % visual injury, Obs [11, 22]
30%: % visual injury, Obs ([6]; Compound A 7.5 g ae/ha alone) | % visual injury ([10]; Compound A 7.5 g ae/ha alone) | % visual injury, Obs [14, 20] | % visual injury, Obs [14, 22] | % visual injury ([16]; Compound A 10 g ae/ha alone)
43%: % visual injury ([7]; Compound A 10 g ae/ha alone) | % visual injury, Obs [14, 21] | % visual injury, Obs [14, 23]
15%: % visual injury, Obs ([4]; Compound A 10 g ae/ha alone)
83%: % visual injury, Obs [9, 20] | % visual injury, Obs [9, 22] | % visual injury, Obs [14, 24]
97%: % visual injury, Obs ([1]; Compound A 7.5 g ae/ha alone) | % visual injury, Obs ([1]; Compound A 10 g ae/ha alone)
63%: % visual injury ([11]; Compound A 10 g ae/ha alone) | % visual injury, Obs [11, 21] | % visual injury, Obs [11, 23] | % visual injury (Kochia scoparia (kochia); Compound A 7.5 g ae/ha alone) | % visual injury (Kochia scoparia (kochia); Compound A 10 g ae/ha alone)
13%: % visual injury, Obs ([12]; Compound A 10 g ae/ha alone)
20%: % visual injury, Obs ([2]; Compound A 7.5 g ae/ha alone) | % visual injury, Obs ([12]; Compound A 7.5 g ae/ha alone) | % visual injury ([16]; Compound A 7.5 g ae/ha alone) | % visual injury, Obs [16, 21] | % visual injury, Obs [16, 23]
85%: % visual injury, Obs [17, 21] | % visual injury, Obs [17, 23]
93%: % visual injury ([5]; Compound A 10 g ae/ha alone) | % visual injury ([14]; Compound A 10 g ae/ha alone) | % visual injury, Obs [14, 25]
78%: % visual injury ([14]; Compound A 7.5 g ae/ha alone) | % visual injury ([17]; Compound A 7.5 g ae/ha alone)
90%: % visual injury, Obs ([3]; Compound A 7.5 g ae/ha alone) | % visual injury, Obs ([8]; Compound A 10 g ae/ha alone) | % visual injury ([9]; Compound A 10 g ae/ha alone) | % visual injury, Obs [17, 20] | % visual injury, Obs [17, 22]
75%: % visual injury, Obs [5, 20] | % visual injury, Obs [5, 22] | % visual injury, Obs (Kochia scoparia (kochia); [24])
88%: % visual injury ([5]; Compound A 7.5 g ae/ha alone) | % visual injury ([9]; Compound A 7.5 g ae/ha alone) | % visual injury, Obs [9, 21] | % visual injury, Obs [9, 23] | % visual injury, Obs ([19]; Compound A 7.5 g ae/ha alone)
25%: % visual injury, Obs ([2]; Compound A 10 g ae/ha alone)
8%: % visual injury, Obs ([6]; Compound A 10 g ae/ha alone)
89%: % visual injury, Obs ([3]; Compound A 10 g ae/ha alone) | % visual injury, Obs ([8]; Compound A 7.5 g ae/ha alone)
80%: % visual injury, Obs [5, 21] | % visual injury, Obs [5, 23] | % visual injury, Obs ([19]; Compound A 10 g ae/ha alone)
10%: % visual injury, Obs [16, 20] | % visual injury, Obs [16, 22]
0%: % visual injury, Obs ([13]; Compound A 7.5 g ae/ha alone) | % visual injury, Obs ([13]; Compound A 10 g ae/ha alone) | % visual injury ([15]; Compound A 7.5 g ae/ha alone) | % visual injury ([15]; Compound A 10 g ae/ha alone) | % visual injury, Obs [15, 20] | % visual injury, Obs [15, 21] | % visual injury, Obs [15, 22] | % visual injury, Obs [15, 23] | % visual injury ([18]; Compound A 7.5 g ae/ha alone) | % visual injury ([18]; Compound A 10 g ae/ha alone) | % visual injury, Obs [18, 20] | % visual injury, Obs [18, 21] | % visual injury, Obs [18, 22] | % visual injury, Obs [18, 23]
38%: % visual injury, Obs ([4]; Compound A 7.5 g ae/ha alone)
70%: % visual injury, Obs (Kochia scoparia (kochia); [20]) | % visual injury, Obs (Kochia scoparia (kochia); [21]) | % visual injury, Obs (Kochia scoparia (kochia); [22]) | % visual injury, Obs (Kochia scoparia (kochia); [23])
